{
  "source": "paper PMC4904373",
  "about": "“Azole Antifungal Sensitivity of Sterol 14α-Demethylase (CYP51) and CYP5218 from Malassezia globosa” (Scientific Reports, 2016)",
  "key": {"[1]": {"tested_on": "M. globosa", "conditions": "cited from earlier work"}, "[2]": {"target": "T1, M. globosa CYP51 (Malassezia globosa, UniProt A8Q3I7, A7V/E4L/G6A/I5L/L2A/Q3L/W8F)", "T1 sequence (A8Q3I7 whole entry L2A/Q3L/E4L/I5L/G6A/A7V/W8F)": "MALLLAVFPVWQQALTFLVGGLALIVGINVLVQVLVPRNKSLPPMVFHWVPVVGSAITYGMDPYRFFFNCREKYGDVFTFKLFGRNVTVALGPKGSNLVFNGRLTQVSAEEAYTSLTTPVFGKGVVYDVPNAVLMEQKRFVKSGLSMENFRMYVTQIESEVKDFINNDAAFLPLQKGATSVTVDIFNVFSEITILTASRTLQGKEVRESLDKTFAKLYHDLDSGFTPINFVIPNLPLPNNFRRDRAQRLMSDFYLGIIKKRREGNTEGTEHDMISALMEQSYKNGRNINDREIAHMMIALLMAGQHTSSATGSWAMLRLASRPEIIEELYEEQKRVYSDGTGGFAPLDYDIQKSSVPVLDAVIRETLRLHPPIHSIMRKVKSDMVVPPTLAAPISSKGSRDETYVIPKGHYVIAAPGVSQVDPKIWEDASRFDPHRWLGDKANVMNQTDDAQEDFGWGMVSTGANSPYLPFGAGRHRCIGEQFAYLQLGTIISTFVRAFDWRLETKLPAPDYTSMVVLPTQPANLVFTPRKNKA", "assay": "biochemical", "description": "Sterol metabolites were recovered by extraction with ethyl acetate followed by derivatization with 0.1 ml N,O-bis(trimethylsilyl)trifluoroacetamide (BSTFA) : trimethylchlorosilane (TMCS) (99:1) and 0.3 ml anhydrous pyridine (2 h at 80 °C) prior to analysis by gas chromatography mass spectrometry (GC/MS)[53]."}, "[3]": {"tested_on": "M. globosa ATCC MYA-4612", "assay": "M. globosa MIC100 determination", "type": "cell-based, Malassezia globosa", "conditions": "for MIC: Malassezia globosa, 168 h, read-out: MIC100", "description": "M. globosa ATCC MYA-4612 was grown for 7 days at 30 °C in modified Dixon medium (3.6% malt extract, 2% desiccated ox-bile, 1% Tween 40, 0.6% peptone, 0.2% glycerol, 0.2% oleic acid, pH adjusted to 6 with HCl) until a culture density of 1.5 × 10^5 cells ml^−1 was obtained. Cells from 3 ml of stock culture were harvested, suspended in 1 ml of saline and used to inoculate 30 ml of fresh modified Dixon medium for use as M. globosa inoculums in MIC determinations. Stock azole concentrations of 1600, 800, 400, 200, 100, 50, 25, 12.5, 6.25, 3.125 and 0 μg ml^−1 were prepared in DMSO. These were diluted ten-fold with fresh modified Dixon media and 20 μl of the diluted azole solutions were then mixed with 180 μl of M. globosa inoculum in microtiter plate wells to yield final azole concentrations of 16, 8, 4, 2, 1, 0.5, 0.25, 0.125, 0.0625, 0.03125 and 0 μg ml^−1. The microtiter plates were incubated at 30 °C for 7 days and then read. Each azole MIC100 determination was performed in triplicate."}, "[4]": {"target": "T1, M. globosa CYP51", "assay": "biochemical", "type": "binding", "description": "(§1) Reduced carbon monoxide difference spectroscopy[46][47] and absolute spectra between 700 and 300 nm were used to determine cytochrome P450 concentrations. Substrate and azole binding studies were performed[31][48] using 2.5 mM stock sterol solutions in 40% (wt/vol) (2-hydroxypropyl)-β-cyclodextrin (HPCD), 4 mg ml^−1 solutions of fatty acids in dimethylformamide (DMF), and stock 0.05, 0.1 and 0.2 mg ml^−1 solutions of azole antifungal agents in dimethylsulfoxide (DMSO). Sterols were titrated against 5 μM CYP51, fatty acids were titrated against 4 μM CYP5218 and azole antifungal agents were titrated against 2 μM CYP51 and CYP5218. The absorbance difference spectrum between 500 and 350 nm was determined after each incremental addition of ligand with saturation curves constructed from ΔApeak-trough against ligand concentration. The dissociation constants (Kd) for sterols and fatty acids were determined by non-linear regression (Levenberg-Marquardt algorithm) using the Michaelis-Menten equation. The dissociation constants of the enzyme-azole complex were determined by non-linear regression (Levenberg-Marquardt algorithm) using a rearrangement of the Morrison equation for tight ligand binding. ProFit 6.1.12 (QuantumSoft, Zurich, Switzerland) was used for curve-fitting data. All ligand-binding studies were performed at 22 ± 2 °C and in triplicate. All spectral determinations were made using a Hitachi U-3310 UV/VIS spectrophotometer (San Jose, California)."}, "[5]": {"target": "M. globosa CYP5218 (Malassezia globosa, UniProt A8QCD3, A3L/A5L/F6A/I7V/S4L/S8F)", "assay": "biochemical", "type": "binding", "conditions": "for azole binding to CYP5218 (binding spectra): 2 μM CYP5218, result in words", "description": "as §1"}, "[6]": {"tested_on": "M. globosa", "assay": "Sterol analysis of azole-treated M. globosa", "type": "cell-based, Malassezia globosa", "conditions": "4 μg ml^−1 ketaminazole", "description": "Individual sterols were identified by reference to relative retention times, mass ions and fragmentation patterns. Sterol composition was calculated using peak areas."}, "[7]": {"target": "C. albicans CYP51", "parameters": "method as in PMID 23826084", "conditions": "cited from earlier work"}, "[8]": {"target": "H. sapiens CYP51", "parameters": "method as in PMID 23826084", "conditions": "cited from earlier work"}, "[9]": {"tested_on": "M. globosa"}},
  "note": "Values joined by “and” are separate entries in the source; they are usually repeats but may differ in a detail not shown here. Equal entries are not always repeated. Where two headings read alike, the source gives them in different places.",
  "data": [
    {"smiles": "OC(Cn1cncn1)(Cn1cncn1)c1ccc(F)cc1F", "note": "[fluconazole]", "values": [
      {"measurement": "MIC values previously reported", "setting": "[1]", "result": 4, "unit": "µg/mL"},
      {"measurement": "IC50", "setting": "[2]; IC50, 0.5 μM CYP51, CYP51:AfCPR1 1:2, 50 μM lanosterol as substrate", "result": "206 nM and 200 nM"},
      {"measurement": "MIC", "setting": "[3]; modified Dixon medium, 30 °C, 7 days", "result": 64, "unit": "µg/mL"},
      {"measurement": "Kd", "setting": "[4]", "result": "11 ± 4", "unit": "nM"},
      {"measurement": "azole binding to CYP5218 (binding spectra)", "setting": "[5]", "result": "did not bind"},
      {"measurement": "azole binding to CYP5218 (binding spectra)", "setting": "[5]; listed as Fluconazole", "result": "no reproducible binding spectra"}
    ]},
    {"smiles": "CC(=O)N1CCN(c2ccc(NCC3COC(Cn4ccnc4)(c4ccc(Cl)cc4Cl)O3)cc2)CC1", "note": "(centres unmarked) [ketaminazole]", "values": [
      {"measurement": "IC50", "setting": "[2]; 0.5 μM CYP51, CYP51:AfCPR1 1:2, 50 μM lanosterol as substrate", "result": "321 ± 42", "unit": "nM"},
      {"measurement": "growth inhibition", "setting": "[3]; 4 μg ml^−1", "result": "partial inhibition of growth"},
      {"measurement": "MIC", "setting": "[3]", "result": 8, "unit": "µg/mL"},
      {"measurement": "sterol fraction (%) 4,4-dimethylzymosterol", "setting": "[6]", "result": 0.62, "unit": "%"},
      {"measurement": "sterol fraction (%) Eburicol", "setting": "[6]", "result": 14.63, "unit": "%"},
      {"measurement": "sterol fraction (%) Episterol", "setting": "[6]", "result": 0.63, "unit": "%"},
      {"measurement": "sterol fraction (%) Ergosta-5,7-dienol", "setting": "[6]", "result": 13.85, "unit": "%"},
      {"measurement": "sterol fraction (%) Ergosta-7-enol", "setting": "[6]", "result": 5.00, "unit": "%"},
      {"measurement": "sterol fraction (%) Ergosta-8,22-dienol", "setting": "[6]", "result": 5.35, "unit": "%"},
      {"measurement": "sterol fraction (%) Ergosta-8-enol", "setting": "[6]", "result": 0, "unit": "%"},
      {"measurement": "sterol fraction (%) Ergosterol", "setting": "[6]", "result": 54.64, "unit": "%"},
      {"measurement": "sterol fraction (%) Fecosterol", "setting": "[6]", "result": 0.54, "unit": "%"},
      {"measurement": "sterol fraction (%) Obtusifoliol", "setting": "[6]", "result": 3.52, "unit": "%"},
      {"measurement": "sterol fraction (%) Cholesterol", "setting": "[6]; cholesterol assimilated from growth media", "result": 1.21, "unit": "%"},
      {"measurement": "Kd", "setting": "[7]", "result": 43, "unit": "nM"},
      {"measurement": "Kd", "setting": "[4]; azole titrated against 2 μM CYP51, Morrison equation", "result": "3 ± 1", "unit": "nM"},
      {"measurement": "azole binding to CYP5218 (binding spectra)", "setting": "[5]", "result": "type II binding spectra"},
      {"measurement": "Kd", "setting": "[5]; azole titrated against 2 μM CYP5218", "result": "~12000 nM and ~11700 nM"},
      {"measurement": "Kd", "setting": "[8]", "result": 731, "unit": "nM"}
    ]},
    {"smiles": "C=CC[C@@H]1/C=C(\\C)C[C@H](C)C[C@H](OC)[C@H]2O[C@@](O)(C(=O)C(=O)N3CCCC[C@H]3C(=O)O[C@H](/C(C)=C/[C@@H]3CC[C@@H](O)[C@H](OC)C3)[C@H](C)[C@@H](O)CC1=O)[C@H](C)C[C@@H]2OC", "note": "[FK-506]", "values": [
      {"measurement": "concentration above which cytotoxic towards M. globosa", "setting": "[9]", "result": "above 0.0625 μg ml^−1"}
    ]}
  ]
}
